Source: ChEMBL document CHEMBL1926681, “Novel inhibitors of epidermal growth factor receptor: (4-(Arylamino)-7H-pyrrolo[2,3-d]pyrimidin-6-yl)(1H-indol-2-yl)methanones and (1H-indol-2-yl)(4-(phenylamino)thieno[2,3-d]pyrimidin-6-yl)methanones” (Bioorg Med Chem, 2012)
Calls of active or inactive are those of the source. The rule behind the calls is not given here.

Assays:
[1] = molecular target: Hepatocyte growth factor receptor (Homo sapiens) (UniProt P08581); test: Inhibition of MET using poly(Ala, Glu, Lys, Tyr) as substrate and [gamma33P]ATP at 1 uM after 60 mins by scintillation counting
[2] = molecular target: T1, Epidermal growth factor receptor (Homo sapiens, UniProt P00533); test: Inhibition of EGFR using poly(Glu,Tyr)4:1 as substrate and [gamma33P]ATP at 1 uM after 60 mins by scintillation counting
[3] = molecular target: Vascular endothelial growth factor receptor 2 (Homo sapiens) (UniProt P35968); test: Inhibition of VEGFR2 using poly(Glu,Tyr)4:1 as substrate and [gamma33P]ATP at 1 uM after 60 mins by scintillation counting
[4] = molecular target: Tyrosine-protein kinase ABL1 (Homo sapiens) (UniProt P00519); test: Inhibition of ABL1 using poly(Ala, Glu, Lys, Tyr) as substrate and [gamma33P]ATP at 1 uM after 60 mins by scintillation counting
[5] = molecular target: Receptor tyrosine-protein kinase erbB-2 (Homo sapiens) (UniProt P04626); test: Inhibition of Erbb2 using poly(Glu,Tyr)4:1 as substrate and [gamma33P]ATP at 1 uM after 60 mins by scintillation counting
[6] = molecular target: T1, Epidermal growth factor receptor; test: Inhibition of EGFR using poly(Glu,Tyr)4:1 as substrate and [gamma33P]ATP after 60 mins by scintillation counting

Tyrosine-protein kinase ABL1 (Homo sapiens), sequence (P00519 whole entry): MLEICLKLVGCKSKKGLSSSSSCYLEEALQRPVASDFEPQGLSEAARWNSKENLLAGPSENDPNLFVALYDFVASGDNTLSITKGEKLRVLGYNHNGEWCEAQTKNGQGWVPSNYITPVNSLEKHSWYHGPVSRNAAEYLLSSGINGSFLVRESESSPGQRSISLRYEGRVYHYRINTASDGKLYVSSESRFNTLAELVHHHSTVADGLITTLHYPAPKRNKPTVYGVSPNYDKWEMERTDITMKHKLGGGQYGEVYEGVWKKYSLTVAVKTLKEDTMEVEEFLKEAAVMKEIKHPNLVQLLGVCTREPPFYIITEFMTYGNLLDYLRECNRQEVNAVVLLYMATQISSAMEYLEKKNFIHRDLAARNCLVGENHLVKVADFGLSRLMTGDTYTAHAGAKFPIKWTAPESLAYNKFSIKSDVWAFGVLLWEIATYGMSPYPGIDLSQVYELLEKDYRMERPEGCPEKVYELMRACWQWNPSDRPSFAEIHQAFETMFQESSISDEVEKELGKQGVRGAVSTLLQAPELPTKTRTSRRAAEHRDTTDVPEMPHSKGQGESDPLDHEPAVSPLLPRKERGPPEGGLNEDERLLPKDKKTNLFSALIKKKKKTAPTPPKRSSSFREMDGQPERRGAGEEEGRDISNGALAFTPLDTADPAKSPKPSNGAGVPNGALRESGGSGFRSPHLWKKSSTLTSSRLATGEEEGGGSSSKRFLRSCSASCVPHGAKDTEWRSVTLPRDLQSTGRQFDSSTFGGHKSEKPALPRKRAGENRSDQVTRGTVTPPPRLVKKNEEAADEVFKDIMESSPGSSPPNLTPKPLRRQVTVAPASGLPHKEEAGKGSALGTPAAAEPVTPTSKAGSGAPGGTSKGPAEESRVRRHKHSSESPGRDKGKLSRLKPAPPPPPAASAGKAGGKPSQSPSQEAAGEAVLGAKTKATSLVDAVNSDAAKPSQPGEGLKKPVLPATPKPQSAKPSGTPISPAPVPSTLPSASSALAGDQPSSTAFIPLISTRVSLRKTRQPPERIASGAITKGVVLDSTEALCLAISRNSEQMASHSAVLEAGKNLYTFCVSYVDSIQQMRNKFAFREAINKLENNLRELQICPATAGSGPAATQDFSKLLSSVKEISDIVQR
Hepatocyte growth factor receptor (Homo sapiens), sequence (P08581 whole entry): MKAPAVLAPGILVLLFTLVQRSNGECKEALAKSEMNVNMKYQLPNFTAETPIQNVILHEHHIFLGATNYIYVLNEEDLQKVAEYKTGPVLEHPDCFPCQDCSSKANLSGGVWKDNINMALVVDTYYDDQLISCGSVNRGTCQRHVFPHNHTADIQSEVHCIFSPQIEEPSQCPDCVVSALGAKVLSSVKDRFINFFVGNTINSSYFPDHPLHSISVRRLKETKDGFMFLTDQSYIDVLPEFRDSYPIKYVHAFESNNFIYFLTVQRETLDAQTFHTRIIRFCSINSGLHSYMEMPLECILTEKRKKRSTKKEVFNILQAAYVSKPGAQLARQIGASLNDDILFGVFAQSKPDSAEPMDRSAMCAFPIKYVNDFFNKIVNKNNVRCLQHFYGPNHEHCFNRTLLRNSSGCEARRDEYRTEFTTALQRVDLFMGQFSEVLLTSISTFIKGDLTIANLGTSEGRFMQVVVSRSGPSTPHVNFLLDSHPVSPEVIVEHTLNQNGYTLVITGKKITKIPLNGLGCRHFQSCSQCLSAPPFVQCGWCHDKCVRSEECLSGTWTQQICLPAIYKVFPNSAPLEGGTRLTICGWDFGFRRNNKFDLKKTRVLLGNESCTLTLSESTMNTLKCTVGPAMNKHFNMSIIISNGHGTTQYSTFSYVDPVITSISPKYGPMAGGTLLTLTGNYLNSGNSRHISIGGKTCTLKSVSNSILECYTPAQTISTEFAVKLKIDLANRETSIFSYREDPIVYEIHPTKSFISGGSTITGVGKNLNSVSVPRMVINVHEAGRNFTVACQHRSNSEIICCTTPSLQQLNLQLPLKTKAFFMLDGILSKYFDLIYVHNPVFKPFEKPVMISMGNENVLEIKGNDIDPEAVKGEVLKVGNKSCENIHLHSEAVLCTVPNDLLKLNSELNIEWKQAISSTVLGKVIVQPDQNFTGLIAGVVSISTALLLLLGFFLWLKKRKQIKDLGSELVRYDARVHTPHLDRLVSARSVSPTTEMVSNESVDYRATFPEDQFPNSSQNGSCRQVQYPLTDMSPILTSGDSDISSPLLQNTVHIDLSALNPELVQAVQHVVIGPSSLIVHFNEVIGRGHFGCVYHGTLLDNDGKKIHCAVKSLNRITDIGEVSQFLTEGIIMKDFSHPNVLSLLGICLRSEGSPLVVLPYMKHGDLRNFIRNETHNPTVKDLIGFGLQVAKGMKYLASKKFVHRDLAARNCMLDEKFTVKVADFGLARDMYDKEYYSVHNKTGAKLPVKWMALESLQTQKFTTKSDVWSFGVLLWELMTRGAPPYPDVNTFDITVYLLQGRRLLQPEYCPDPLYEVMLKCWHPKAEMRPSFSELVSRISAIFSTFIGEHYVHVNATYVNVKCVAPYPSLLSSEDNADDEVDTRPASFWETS
Receptor tyrosine-protein kinase erbB-2 (Homo sapiens), sequence (P04626 whole entry): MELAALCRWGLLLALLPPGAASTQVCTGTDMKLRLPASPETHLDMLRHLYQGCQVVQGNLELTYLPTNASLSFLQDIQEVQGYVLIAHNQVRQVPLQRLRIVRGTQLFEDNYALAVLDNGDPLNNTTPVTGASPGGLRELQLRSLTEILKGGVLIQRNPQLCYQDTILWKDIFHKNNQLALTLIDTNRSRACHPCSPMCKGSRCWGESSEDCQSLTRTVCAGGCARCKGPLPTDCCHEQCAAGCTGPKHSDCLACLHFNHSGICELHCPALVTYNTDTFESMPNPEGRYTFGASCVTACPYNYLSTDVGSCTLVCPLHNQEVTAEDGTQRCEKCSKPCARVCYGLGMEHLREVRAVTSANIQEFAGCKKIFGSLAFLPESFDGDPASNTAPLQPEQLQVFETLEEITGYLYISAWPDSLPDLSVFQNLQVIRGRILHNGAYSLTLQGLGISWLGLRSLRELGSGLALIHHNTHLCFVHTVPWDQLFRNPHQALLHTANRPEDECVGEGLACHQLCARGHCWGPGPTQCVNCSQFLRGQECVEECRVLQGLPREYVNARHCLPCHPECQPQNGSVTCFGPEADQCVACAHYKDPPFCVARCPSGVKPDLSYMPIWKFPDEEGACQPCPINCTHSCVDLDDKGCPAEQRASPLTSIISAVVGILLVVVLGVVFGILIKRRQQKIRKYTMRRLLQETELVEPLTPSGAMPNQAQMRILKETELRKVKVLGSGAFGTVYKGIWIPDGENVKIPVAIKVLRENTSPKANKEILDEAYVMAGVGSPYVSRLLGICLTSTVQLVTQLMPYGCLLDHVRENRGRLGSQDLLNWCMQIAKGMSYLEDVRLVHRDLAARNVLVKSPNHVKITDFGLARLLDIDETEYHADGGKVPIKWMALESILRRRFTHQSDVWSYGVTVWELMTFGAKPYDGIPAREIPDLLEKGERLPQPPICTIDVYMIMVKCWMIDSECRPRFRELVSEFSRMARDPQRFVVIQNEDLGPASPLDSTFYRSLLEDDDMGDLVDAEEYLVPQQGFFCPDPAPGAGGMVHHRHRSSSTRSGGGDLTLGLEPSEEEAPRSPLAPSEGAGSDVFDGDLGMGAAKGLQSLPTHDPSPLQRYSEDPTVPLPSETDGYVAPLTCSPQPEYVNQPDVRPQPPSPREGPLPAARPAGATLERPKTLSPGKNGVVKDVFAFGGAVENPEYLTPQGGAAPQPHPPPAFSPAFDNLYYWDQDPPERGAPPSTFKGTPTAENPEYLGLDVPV
T1 sequence (P00533 whole entry): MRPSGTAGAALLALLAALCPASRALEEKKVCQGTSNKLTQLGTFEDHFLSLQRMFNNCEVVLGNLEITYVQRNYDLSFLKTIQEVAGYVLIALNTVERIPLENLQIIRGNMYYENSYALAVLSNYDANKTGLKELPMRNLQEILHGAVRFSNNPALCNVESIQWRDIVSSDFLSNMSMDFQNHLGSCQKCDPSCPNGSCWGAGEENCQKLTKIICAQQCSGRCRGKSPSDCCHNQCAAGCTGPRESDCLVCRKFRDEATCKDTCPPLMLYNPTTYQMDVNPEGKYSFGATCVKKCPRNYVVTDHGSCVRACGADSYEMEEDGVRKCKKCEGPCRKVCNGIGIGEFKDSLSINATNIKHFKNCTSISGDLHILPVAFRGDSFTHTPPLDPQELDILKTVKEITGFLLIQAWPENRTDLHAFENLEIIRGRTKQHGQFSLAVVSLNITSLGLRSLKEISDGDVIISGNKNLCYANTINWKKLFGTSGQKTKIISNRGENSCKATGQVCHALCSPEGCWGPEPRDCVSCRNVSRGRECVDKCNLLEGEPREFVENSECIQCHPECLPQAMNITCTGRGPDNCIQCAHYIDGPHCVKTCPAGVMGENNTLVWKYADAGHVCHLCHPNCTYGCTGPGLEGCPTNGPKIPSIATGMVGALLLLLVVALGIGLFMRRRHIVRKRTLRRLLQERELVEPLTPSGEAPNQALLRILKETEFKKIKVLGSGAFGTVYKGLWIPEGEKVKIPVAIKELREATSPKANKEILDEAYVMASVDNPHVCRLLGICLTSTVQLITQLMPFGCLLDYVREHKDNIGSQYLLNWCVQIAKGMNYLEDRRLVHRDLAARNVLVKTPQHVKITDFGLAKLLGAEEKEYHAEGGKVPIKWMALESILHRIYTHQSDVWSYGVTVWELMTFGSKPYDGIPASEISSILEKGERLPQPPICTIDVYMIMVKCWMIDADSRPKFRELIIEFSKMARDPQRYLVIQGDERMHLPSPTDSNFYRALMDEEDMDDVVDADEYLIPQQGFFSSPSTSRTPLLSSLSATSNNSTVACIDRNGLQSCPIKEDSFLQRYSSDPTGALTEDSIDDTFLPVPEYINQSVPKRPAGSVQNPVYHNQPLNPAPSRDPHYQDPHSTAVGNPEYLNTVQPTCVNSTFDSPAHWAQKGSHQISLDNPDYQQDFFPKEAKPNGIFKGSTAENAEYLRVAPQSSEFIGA

inhibition [1]	inhibition [2] [%]	inhibition [3] [%]	inhibition [4]	inhibition [5] [%]	IC50 [6] [nM]	SMILES
inactive	77	20	inactive	20		COc1cnc2[nH]c(C(=O)c3cc4c(Nc5cccc(I)c5)ncnc4[nH]3)cc2c1
inactive	80	19	inactive	46		O=C(c1cc2ccccc2[nH]1)c1cc2c(Nc3ccc(Cl)cc3)ncnc2s1
inactive	99	22	inactive	76	10.8	O=C(c1cc2ccccc2s1)c1cc2c(Nc3ccc(F)c(Cl)c3)ncnc2s1
inactive	22	23	inactive	83		CN(c1ccc(F)c(Cl)c1)c1ncnc2sc(C(=O)c3cc4ccccc4[nH]3)cc12
inactive	93	9	inactive	60	18.7	C#Cc1cccc(Nc2ncnc3sc(C(=O)c4cc5ccccc5[nH]4)cc23)c1
inactive	77	17	inactive	38		O=C(c1cc2ccccc2[nH]1)c1cc2c(NCc3ccccc3)ncnc2s1
inactive	55	13	inactive			O=C(c1cc2ccccc2[nH]1)c1cc2c(NCc3ccccc3)ncnc2[nH]1
inactive	79	29	inactive	42		O=C(c1cc2ccccc2[nH]1)c1cc2c(Nc3cccc(C(F)(F)F)c3)ncnc2s1
inactive	85	51	inactive	88		O=C(c1cc2ccccc2o1)c1cc2c(Nc3ccc(F)c(Cl)c3)ncnc2s1
inactive	50	22	inactive	14		O=C(c1cc2ccccc2[nH]1)c1cc2c(Nc3ccc(Br)cc3F)ncnc2[nH]1
inactive	82	28	inactive	37		C[C@@H](Nc1ncnc2[nH]c(C(=O)c3cc4ccccc4[nH]3)cc12)c1ccccc1
inactive	88	5	inactive	61		C[C@@H](Nc1ncnc2sc(C(=O)c3cc4ccccc4[nH]3)cc12)c1ccccc1
inactive	73	0	inactive	75		O=C(c1cc2ccccc2[nH]1)c1cc2c(Nc3cccc(I)c3)ncnc2s1
inactive	68	47	inactive	24		O=C(c1cc2ccccc2[nH]1)c1cc2c(Nc3ccc(Cl)cc3)ncnc2[nH]1
inactive	43	24	inactive	34		O=C(c1cc2ccccc2[nH]1)c1cc2c(Nc3ccc(C(F)(F)F)cc3)ncnc2s1
inactive	88	17	inactive	25		COc1ccc2[nH]c(C(=O)c3cc4c(Nc5cccc(I)c5)ncnc4[nH]3)cc2c1
inactive	82	46	inactive	51		O=C(c1cc2ccccc2[nH]1)c1cc2c(Nc3ccc(Br)cc3F)ncnc2s1
inactive	88	10	inactive	52		O=C(c1cc2ccccc2[nH]1)c1cc2c(Nc3cccc(I)c3)ncnc2[nH]1
inactive	83	5	inactive	70		C#Cc1cccc(Nc2ncnc3[nH]c(C(=O)c4cc5ccccc5[nH]4)cc23)c1
inactive	77	53	inactive	13		O=C(c1cc2ccccc2[nH]1)c1cc2c(Nc3ccc(OCc4cccc(F)c4)cc3Cl)ncnc2[nH]1
inactive	0	0	inactive	0		O=C(c1cc2cc(O)ccc2[nH]1)c1cc2cncnc2[nH]1
inactive	88	47	inactive	22		O=C(c1cc2ccccc2[nH]1)c1cc2c(Nc3ccc(F)c(Cl)c3)ncnc2[nH]1
inactive	57	31	inactive	7		O=C(c1cc2ccccc2[nH]1)c1cc2c(Nc3ccc(O)cc3)ncnc2[nH]1
inactive	96	45	inactive	50	43.7	O=C(c1cc2ccccc2[nH]1)c1cc2c(Nc3ccc(F)cc3)ncnc2s1
inactive	91	29	inactive	57	18.5	O=C(c1cc2ccccc2[nH]1)c1cc2c(Nc3ccc(OCc4cccc(F)c4)cc3Cl)ncnc2s1
